# Calls of active or inactive are those of the source. No cut-off for these calls is given here.
# Legend:
# [1] = molecular target: T1, Peroxisome proliferator-activated receptor alpha (Homo sapiens) (UniProt Q07869); assay: Agonist activity at recombinant human GAL4-DBD fused PPARalpha LBD expressed in COS7 cells at 10 uM after 24 hrs by luciferase reporter gene assay relative to 2-(4-tert-Butylphenoxy)-3-[4-[2-[(4-pyridin-2-ylbenzoyl)amino]ethoxy] phenyl]propionic acid; assay type: cell-based
# T1 sequence (whole entry): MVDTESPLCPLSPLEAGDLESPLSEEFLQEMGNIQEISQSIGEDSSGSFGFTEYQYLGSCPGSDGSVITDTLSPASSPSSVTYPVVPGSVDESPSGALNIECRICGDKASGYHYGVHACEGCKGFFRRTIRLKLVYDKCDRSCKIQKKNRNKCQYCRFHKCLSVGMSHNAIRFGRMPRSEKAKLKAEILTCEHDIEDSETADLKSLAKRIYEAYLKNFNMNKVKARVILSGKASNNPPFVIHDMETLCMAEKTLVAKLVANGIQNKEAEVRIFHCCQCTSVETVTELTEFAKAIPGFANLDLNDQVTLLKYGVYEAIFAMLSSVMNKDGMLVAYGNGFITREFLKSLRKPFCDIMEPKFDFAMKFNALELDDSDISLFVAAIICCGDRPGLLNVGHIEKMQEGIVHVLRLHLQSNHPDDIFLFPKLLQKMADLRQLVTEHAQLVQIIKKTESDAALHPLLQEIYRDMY
# [2] = tested on: Rattus norvegicus; assay: Toxicity in Zucker diabetic fatty rat assessed as body weight gain at 3 mg/kg, po administered once daily for 14 days relative to control; assay type: organism-based; conditions: in vivo, 336 h
# [3] = Metabolic stability in human liver microsomes after 0.5 hrs; assay type: ADME, microsome; conditions: read-out: Stability
# [4] = molecular target: T2, Peroxisome proliferator-activated receptor gamma (Homo sapiens, UniProt P37231); assay: Agonist activity at recombinant human GAL4-DBD fused PPARgamma LBD expressed in COS7 cells after 24 hrs by luciferase reporter gene assay; assay type: cell-based
# T2 sequence (P37231 whole entry): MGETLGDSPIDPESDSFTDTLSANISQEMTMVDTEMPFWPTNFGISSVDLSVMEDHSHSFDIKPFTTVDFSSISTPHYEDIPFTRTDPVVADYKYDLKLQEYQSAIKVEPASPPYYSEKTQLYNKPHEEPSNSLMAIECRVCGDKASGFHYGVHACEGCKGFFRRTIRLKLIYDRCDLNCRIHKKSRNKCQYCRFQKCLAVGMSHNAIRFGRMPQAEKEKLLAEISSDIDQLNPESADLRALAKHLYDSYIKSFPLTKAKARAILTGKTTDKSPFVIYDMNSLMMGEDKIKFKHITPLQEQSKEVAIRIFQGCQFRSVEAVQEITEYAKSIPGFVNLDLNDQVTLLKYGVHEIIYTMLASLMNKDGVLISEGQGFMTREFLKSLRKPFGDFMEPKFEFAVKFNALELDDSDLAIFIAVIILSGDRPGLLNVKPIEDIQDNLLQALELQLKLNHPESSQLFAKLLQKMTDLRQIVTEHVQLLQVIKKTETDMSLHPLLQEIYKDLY
# [5] = AUC (0 to 24 hrs) in Zucker diabetic fatty rat at 3 mg/kg, po dosed once daily for 14 days and followed by additional administration on day 15; assay type: ADME, organism-based; design: time < 24 hr, dose 3 mg/kg, route oral; conditions: in vivo
# [6] = tested on: Rattus norvegicus; assay: Antidiabetic activity in Zucker diabetic fatty rat assessed as reduction in plasma glucose level at 3 mg/kg, po administered once daily for 14 days measured on day 15 relative to control; assay type: functional; design: scale not given: the % may be the effect or the level left
# [7] = Apparent permeability of the compound after 4 hrs by PAMPA; assay type: ADME
# [8] = Tmax in Zucker diabetic fatty rat at 3 mg/kg, po dosed once daily for 14 days and followed by additional administration on day 15; assay type: ADME, organism-based; conditions: in vivo
# [9] = Cmax in Zucker diabetic fatty rat at 3 mg/kg, po dosed once daily for 14 days and followed by additional administration on day 15; assay type: ADME, organism-based; design: dose 3 mg/kg, route oral; conditions: in vivo
# [10] = Aqueous thermodynamic solubility of the compound in pH 6.8 solution up to 4 hrs by HPLC-UV analysis; assay type: physicochemical; conditions: read-out: Therm_solubility
# [11] = molecular target: T3, Peroxisome proliferator-activated receptor alpha (Homo sapiens, UniProt Q07869); assay: Agonist activity at recombinant human GAL4-DBD fused PPARalpha LBD expressed in COS7 cells after 24 hrs by luciferase reporter gene assay; assay type: cell-based
# T3 sequence (Q07869 whole entry): T1 sequence (whole entry)
# [12] = 1-octanol/PBS distribution co-efficient, log D of the compound at […] at pH 7.4 after 30 mins by HPLC-MS/MS method; assay type: physicochemical
# [13] = molecular target: T4, Peroxisome proliferator-activated receptor gamma (Homo sapiens) (UniProt P37231); assay: Agonist activity at recombinant human GAL4-DBD fused PPARgamma LBD expressed in COS7 cells at 10 uM after 24 hrs by luciferase reporter gene assay relative to rosiglitazone; assay type: cell-based
# T4 sequence (whole entry): T2 sequence (P37231 whole entry)
# [14] = Metabolic stability in rat liver microsomes after 0.5 hrs; assay type: ADME, microsome; conditions: read-out: Stability
# [15] = molecular target: T5, Peroxisome proliferator-activated receptor delta (Homo sapiens) (UniProt Q03181); assay: Agonist activity at PPARdelta (unknown origin) at 10 uM
# T5 sequence (whole entry): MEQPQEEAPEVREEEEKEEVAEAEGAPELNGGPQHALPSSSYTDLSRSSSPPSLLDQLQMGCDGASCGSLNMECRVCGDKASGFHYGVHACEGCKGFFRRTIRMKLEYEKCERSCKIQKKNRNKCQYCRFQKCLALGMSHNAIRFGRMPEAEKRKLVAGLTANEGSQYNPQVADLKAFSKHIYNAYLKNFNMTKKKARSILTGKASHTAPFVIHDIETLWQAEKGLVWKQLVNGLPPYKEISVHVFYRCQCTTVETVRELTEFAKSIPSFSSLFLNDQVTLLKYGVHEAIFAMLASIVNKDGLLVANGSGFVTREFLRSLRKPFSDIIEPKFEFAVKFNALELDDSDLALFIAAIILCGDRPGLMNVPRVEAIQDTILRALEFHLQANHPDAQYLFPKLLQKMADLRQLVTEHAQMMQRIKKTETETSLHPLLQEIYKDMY
# [16] = Cmax in Zucker diabetic fatty rat at 0.3 mg/kg, po administered once daily for 21 days followed by additional administration on day 22; assay type: ADME, organism-based; design: dose 0.3 mg/kg, route oral; conditions: in vivo
# [17] = tested on: Rattus norvegicus; assay: Antidiabetic activity in Zucker diabetic fatty rat assessed as reduction in plasma glucose level at 0.3 mg/kg, po administered once daily for 21 days measured on day 22 relative to control; assay type: functional; design: scale not given: the % may be the effect or the level left
# [18] = Tmax in Zucker diabetic fatty rat at 0.3 mg/kg, po administered once daily for 21 days followed by additional administration on day 22; assay type: ADME, organism-based; conditions: in vivo
# [19] = AUC (0 to 24 hrs) in Zucker diabetic fatty rat at 0.3 mg/kg, po administered once daily for 21 days followed by additional administration on day 22; assay type: ADME, organism-based; design: dose 0.3 mg/kg, time < 24 hr, route oral; conditions: in vivo
# [20] = tested on: Hepatocyte; assay: Cytotoxicity against F344/DuCrlCrlj rat primary hepatocytes assessed as reduction in cell viability at 10 to 100 uM after 24 hrs by LDH release assay; assay type: cell-based
# [21] = Volume of distribution at steady state in cynomolgus monkey at 1 mg/kg, iv by LC-MS/MS; assay type: ADME, organism-based, Macaca fascicularis; conditions: in vivo, read-out: Vdss
# [22] = Oral bioavailability in cynomolgus monkey at 3 mg/kg by LC-MS/MS; assay type: ADME, organism-based, Macaca fascicularis; conditions: in vivo
# [23] = Half life in cynomolgus monkey at 3 mg/kg, po by LC-MS/MS; assay type: ADME, organism-based, Macaca fascicularis; conditions: in vivo
# [24] = tested on: Hepatocyte; assay: Cytotoxicity against F344/DuCrlCrlj rat primary hepatocytes assessed as reduction in mitochondrial enzyme activity at 10 to 100 uM after 24 hrs by WST8 assay; assay type: cell-based
# [25] = Cmax in cynomolgus monkey at 3 mg/kg, po by LC-MS/MS; assay type: ADME, organism-based, Macaca fascicularis; design: dose 3 mg/kg, route oral; conditions: in vivo
# [26] = Metabolic stability in cynomolgus monkey liver microsomes after 0.5 hrs; assay type: ADME, Macaca fascicularis, microsome; conditions: read-out: Stability
# [27] = Tmax in cynomolgus monkey at 3 mg/kg, po by LC-MS/MS; assay type: ADME, organism-based, Macaca fascicularis; conditions: in vivo
# [28] = AUClast in cynomolgus monkey at 3 mg/kg, po by LC-MS/MS; assay type: ADME, organism-based, Macaca fascicularis; design: dose 3 mg/kg, time 0 - last, route oral; conditions: in vivo
# [29] = Clearance in cynomolgus monkey at 1 mg/kg, iv by LC-MS/MS; assay type: ADME, organism-based, Macaca fascicularis; conditions: in vivo
Emax [1] [%],remaining at 0.5 h [3] [%],EC50 [4] [nM],AUC at 24 h [5] [ng·h/mL],Papp at 4 h [7] [×10⁻⁶ cm/s],Tmax [8] [h],Cmax [9] [ng/mL],solubility thermodynamic at 4 h [10] [µg/mL],EC50 [11] [µM],logD at 0.5 h [12],Emax [13] [%],remaining at 0.5 h [14] [%],Activity [15],Structure (SMILES),Activity [2] [%],Activity [6] [%],also measured
6,100,89,1400,16.1,2.4,130,9.9,> 10,1.9,61,,,Cn1c(COc2cccc(C(=O)O)c2)nc2ccc(Oc3ncc(Cl)cc3Cl)cc21,10.1,53.3,
22,100,20,2410,16.5,2,410,70,> 10,1.6,55,81,inactive,Cn1c(COc2cccc(C(=O)O)c2)nc2cnc(Oc3ccc4c(c3)CCC4)cc21,6.3,1.3,
38,,45,2520,12.6,2,510,33,> 10,1.7,58,100,inactive,Cc1ccc(Oc2ccc3nc(COc4cccc(C(=O)O)c4)n(C)c3n2)cc1,6.8,37.6,
23,76,25,4080,31.5,2,600,4.3,> 10,2.5,79,71,inactive,Cn1c(COc2cccc(C(=O)O)c2)nc2ccc(Oc3ccc4c(c3)CCC4)nc21,14,70.4,
,,,,,,,,,,,,,Cc1cnc(Oc2ccc3nc(COc4cccc(C(=O)[O-])c4)n(C)c3c2)c(C)c1.Cc1cnc(Oc2ccc3nc(COc4cccc(C(=O)[O-])c4)n(C)c3c2)c(C)c1.[Ca+2],,,Cmax [16]: 79.2 ng/mL; Activity [17]: 47%; Tmax [18]: 1.8 h; AUC at 24 h [19]: 861 ng·h/mL
20,92,94,3390,9.1,2,630,17,> 10,1.4,89,89,inactive,Cn1c(COc2cccc(C(=O)O)c2)nc2ccc(Oc3ccc4c(c3)OCC4)nc21,7.1,55.3,Activity [20]: Non-Toxic; Vd [21]: 1.97 L/kg; bioavailability [22]: 27%; half-life [23]: 798 min; Activity [24]: Non-Toxic; Cmax [25]: 460 ng/mL; remaining at 0.5 h [26]: 88%; Tmax [27]: 1.5 h; AUC(0-t) [28]: 4910 ng·h/mL; clearance [29]: 2.73 mL/min/kg
